Assay results from ChEMBL document CHEMBL3714720, “Inhibiting G-protein coupled receptor 6 kinase polypeptides” (2014).

Each compound was assayed against G protein-coupled receptor kinase 6 (Homo sapiens, UniProt P43250) (assay: Inhibition of human recombinant full-length GST-tagged human GRK6 using peptide substrate peptide-216 incubated for 7 hrs).
Chain of G protein-coupled receptor kinase 6 (P43250 whole entry): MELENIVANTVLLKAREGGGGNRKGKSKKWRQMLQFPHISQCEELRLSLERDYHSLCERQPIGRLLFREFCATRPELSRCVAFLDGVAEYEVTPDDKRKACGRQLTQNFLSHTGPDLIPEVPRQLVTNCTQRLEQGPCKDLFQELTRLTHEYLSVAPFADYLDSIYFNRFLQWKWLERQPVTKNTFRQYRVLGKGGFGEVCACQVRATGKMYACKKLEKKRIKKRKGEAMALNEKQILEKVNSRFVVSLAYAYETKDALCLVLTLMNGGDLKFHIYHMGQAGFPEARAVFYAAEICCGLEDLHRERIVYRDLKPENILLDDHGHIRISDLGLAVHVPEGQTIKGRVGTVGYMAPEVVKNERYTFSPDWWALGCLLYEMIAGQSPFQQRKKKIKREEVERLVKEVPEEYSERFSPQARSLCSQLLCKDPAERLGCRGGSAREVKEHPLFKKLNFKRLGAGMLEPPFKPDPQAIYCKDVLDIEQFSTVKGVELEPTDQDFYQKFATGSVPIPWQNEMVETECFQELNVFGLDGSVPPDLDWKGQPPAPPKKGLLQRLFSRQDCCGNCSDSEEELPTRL

Row | Compound | IC50 [µM]
1 | COc1ccc(-c2nnc(SCC(=O)O)[nH]2)c(OC)c1OC | > 100
2 | COc1ccc([N+](=O)[O-])cc1-c1nnc(SCC(=O)O)[nH]1 | 77.5
3 | COc1cc(-c2nnc(SCC(=O)O)[nH]2)cc(F)c1O | 3.3
4 | COc1cc([N+](=O)[O-])ccc1-c1nnc(SCC(=O)O)[nH]1 | > 100
5 | COc1cc(O)cc(OC)c1-c1nnc(SCC(=O)O)[nH]1 | > 100
6 | O=C(O)CSc1nnc(-c2cc([N+](=O)[O-])ccc2O)[nH]1 | 14.1
7 | COc1cccc(O)c1-c1nnc(SCC(=O)O)[nH]1 | > 100
8 | CC(=O)CSc1nnc(-c2cccc(C)c2)[nH]1 | > 100
9 | O=C(O)CSc1nnc(-c2ccccc2OCCN2CCCC2)[nH]1 | > 100
10 | Cc1ccc(-c2nnc(SCC(=O)O)[nH]2)cc1[N+](=O)[O-] | 0.751
11 | COc1ccc(-c2nnc(SCC(=O)O)[nH]2)c(Cl)c1OC | > 100
12 | O=C(O)COc1ccccc1-c1nnc(SCC(=O)O)[nH]1 | > 100
13 | O=C(O)CSc1nnc(-c2cccc([N+](=O)[O-])c2O)[nH]1 | > 70
14 | Cc1cccc(-c2n[nH]c(SCC(N)=O)n2)c1 | > 100
15 | COc1cccc(OC)c1-c1nnc(SCC(=O)O)[nH]1 | > 100
16 | Cc1cccc(-c2nnc(SCCC(=O)O)[nH]2)c1 | > 100
17 | COC(=O)c1ccccc1-c1nnc(SCC(=O)O)[nH]1 | > 100
18 | Cc1coc(-c2ccccc2NS(=O)(=O)c2ccc(S(=O)(=O)N3CCCCCC3)cc2)c1 | > 60
19 | Cc1cccc(-c2nnc(SCC(=O)O)n2C)c1 | > 100
20 | COc1cccc(-c2nnc(SCC(=O)O)[nH]2)c1OC | > 100
21 | COc1cc(N(C)C)ccc1-c1nnc(SCC(=O)O)[nH]1 | > 100
22 | COc1cc([N+](=O)[O-])cc(-c2nnc(SCC(=O)O)[nH]2)c1O | 34.8
23 | COc1cccc(-c2nnc(SCC(=O)O)[nH]2)c1OCc1ccccc1 | > 100

Other lines, results leading:

Row | IC50 [µM] | Compound
24 | > 100 | COc1ccc(-c2nnc(SCC(=O)O)[nH]2)c(OC)c1C
25 | 3.58 | Cc1cccc(Oc2ccc(-c3nnc(SCC(=O)O)[nH]3)cc2[N+](=O)[O-])c1
26 | > 74 | O=C(O)CSc1nnc(-c2cccc(C(=O)O)c2)[nH]1
27 | > 100 | COc1c(F)cccc1-c1nnc(SCC(=O)O)[nH]1
28 | > 100 | O=C(O)CSc1nnc(-c2cc(C(=O)O)ccc2O)[nH]1
29 | > 100 | O=C(O)CSc1nnc(-c2ccccc2N2CCOCC2)[nH]1
30 | 1.05 | COc1ccc(-c2nnc(SCC(=O)O)[nH]2)cc1[N+](=O)[O-]
31 | > 100 | COc1cc(-c2nnc(SCC(=O)O)[nH]2)c([N+](=O)[O-])cc1OC
32 | 10.3 | COc1ccc(NC(c2ccccn2)c2ccc3cccnc3c2O)cc1 (centres undefined)
33 | > 100 | Cc1cccc(-c2nnc(SCCC(=O)O)n2C)c1
34 | > 100 | CN(C)CCCOc1ccccc1-c1nnc(SCC(=O)O)[nH]1
35 | 4.52 | COc1cc(-c2nnc(SCC(=O)O)[nH]2)ccc1F
36 | > 100 | O=C(O)CSc1nnc(-c2ccccc2C(=O)O)[nH]1
37 | > 100 | NC(=O)c1ccccc1-c1nnc(SCC(=O)O)[nH]1
38 | > 100 | CN1CCN(c2ccc(-c3nnc(SCC(=O)O)[nH]3)c(F)c2)CC1
39 | > 100 | COc1ccc(OC)c(-c2nnc(SCC(=O)O)[nH]2)c1
40 | > 100 | COC(=O)CSc1nnc(-c2cccc(C)c2)[nH]1
41 | > 100 | Cc1cccc(-c2nnc(SCC(=O)N(C)C)[nH]2)c1
42 | > 100 | CN(C)c1ccc(-c2nnc(SCC(=O)O)[nH]2)cc1
43 | > 100 | COc1cc(OC)c(-c2nnc(SCC(=O)O)[nH]2)cc1OC
44 | > 100 | Cc1cccc(-c2nnc(SC(C)C(=O)O)n2C)c1 (centres undefined)
